Assay results as given in ChEMBL document CHEMBL4270534, “Novel carbazole-triazole conjugates as DNA-targeting membrane active potentiators against clinical isolated fungi” (Eur J Med Chem, 2018).
In brackets after ≈: the same amount, converted by molar mass.

Key:
Format in all cases: functional
[1] = tested on: Candida albicans; test: Antifungal activity against Candida albicans after 24 hrs by two-fold broth microdilution assay
[2] = tested on: Escherichia coli; test: Antibacterial activity against Escherichia coli after 24 hrs by micro broth dilution method
[3] = tested on: Candida tropicalis; test: Antifungal activity against Candida tropicalis after 24 hrs by two-fold broth microdilution assay
[4] = tested on: Staphylococcus aureus; test: Antibacterial activity against methicillin-resistant Staphylococcus aureus after 24 hrs by micro broth dilution method
[5] = tested on: Candida parapsilosis; test: Antifungal activity against Candida parapsilosis ATCC 22019 after 24 hrs by two-fold broth microdilution assay; conditions: Lodderomyces parapsilosis, ATCC 22019, 24 h
[6] = tested on: Aspergillus fumigatus; test: Antifungal activity against Aspergillus fumigatus after 24 hrs by two-fold broth microdilution assay
[7] = tested on: Acinetobacter baumannii; test: Antibacterial activity against Acinetobacter baumannii after 24 hrs by micro broth dilution method
[8] = tested on: Candida albicans; test: Fungicidal activity against Candida albicans incubated for 24 hrs followed by plating onto tryptic soy agar medium and measured after 24 hrs by broth microdilution method
[9] = tested on: Candida parapsilosis; test: Fungicidal activity against Candida parapsilosis ATCC 22019 incubated for 24 hrs followed by plating onto tryptic soy agar medium and measured after 24 hrs by broth microdilution method; conditions: Lodderomyces parapsilosis, ATCC 22019, 24 h
[10] = tested on: Staphylococcus aureus; test: Antibacterial activity against Staphylococcus aureus after 24 hrs by micro broth dilution method
[11] = tested on: Pseudomonas aeruginosa; test: Antibacterial activity against Pseudomonas aeruginosa ATCC 27853 after 24 hrs by micro broth dilution method; conditions: ATCC 27853, 24 h
[12] = tested on: Candida albicans; test: Antifungal activity against Candida albicans ATCC 90023 after 24 hrs by two-fold broth microdilution assay; conditions: ATCC 90023, 24 h
[13] = tested on: Candida tropicalis; test: Ratio of MFC to MIC for Candida tropicalis
[14] = tested on: Staphylococcus aureus; test: Antibacterial activity against Staphylococcus aureus ATCC 25923 after 24 hrs by micro broth dilution method; conditions: ATCC 25923, 24 h
[15] = tested on: Candida tropicalis; test: Fungicidal activity against Candida tropicalis incubated for 24 hrs followed by plating onto tryptic soy agar medium and measured after 24 hrs by broth microdilution method
[16] = tested on: Candida parapsilosis; test: Ratio of MFC to MIC for Candida parapsilosis ATCC 22019
[17] = tested on: Staphylococcus aureus; test: Antibacterial activity against Staphylococcus aureus ATCC 29213 after 24 hrs by micro broth dilution method; conditions: ATCC 29213, 24 h
[18] = tested on: Klebsiella pneumoniae; test: Antibacterial activity against Klebsiella pneumoniae after 24 hrs by micro broth dilution method
[19] = tested on: Candida albicans; test: Ratio of MFC to MIC for Candida albicans
[20] = tested on: Escherichia coli; test: Antibacterial activity against Escherichia coli ATCC 25922 after 24 hrs by micro broth dilution method; conditions: ATCC 25922, 24 h
[21] = tested on: Enterococcus faecalis; test: Antibacterial activity against Enterococcus faecalis after 24 hrs by micro broth dilution method
[22] = tested on: Pseudomonas aeruginosa; test: Antibacterial activity against Pseudomonas aeruginosa after 24 hrs by micro broth dilution method
[23] = tested on: Candida tropicalis; test: Synergistic antifungal activity against Candida tropicalis after 18 hrs in presence of fluconazole by checkerboard assay
[24] = tested on: Candida albicans; test: Synergistic antifungal activity against Candida albicans after 18 hrs in presence of fluconazole by checkerboard assay
[25] = tested on: Candida albicans; test: Synergistic antifungal activity against Candida albicans assessed as FIC index after 18 hrs in presence of fluconazole by checkerboard assay
[26] = tested on: Aspergillus fumigatus; test: Synergistic antifungal activity against Aspergillus fumigatus assessed as FIC index after 18 hrs in presence of fluconazole by checkerboard assay
[27] = tested on: Aspergillus fumigatus; test: Synergistic antifungal activity against Aspergillus fumigatus after 18 hrs in presence of fluconazole by checkerboard assay
[28] = tested on: Candida tropicalis; test: Synergistic antifungal activity against Candida tropicalis assessed as FIC index after 18 hrs in presence of fluconazole by checkerboard assay

SMILES | MIC [1] | MIC [2] | MIC [3] | MIC [4] | MIC [5] | MIC [6] | MIC [7] | MFC [8] | MFC [9] | MIC [10] | MIC [11] | MIC [12] | Ratio [13] | MIC [14] | MFC [15] | MIC [17] | MIC [18] | MIC [20] | MIC [21] | MIC [22] | also measured
OC(Cn1cncn1)(Cn1c2ccc(Br)cc2c2cc(Br)ccc21)c1ccc(F)cc1 (stereo unspecified) | 8 µg/mL (≈ 14.7 µM) | 64 µg/mL (≈ 118 µM) | 16 µg/mL (≈ 29.4 µM) | 64 µg/mL (≈ 118 µM) | 8 µg/mL (≈ 14.7 µM) | 128 µg/mL (≈ 235 µM) | 256 µg/mL (≈ 470 µM) | 32 µg/mL (≈ 58.8 µM) | 16 µg/mL (≈ 29.4 µM) | 64 µg/mL (≈ 118 µM) | 64 µg/mL (≈ 118 µM) | 64 µg/mL (≈ 118 µM) | 2 | 32 µg/mL (≈ 58.8 µM) | 32 µg/mL (≈ 58.8 µM) | 16 µg/mL (≈ 29.4 µM) | 256 µg/mL (≈ 470 µM) | 16 µg/mL (≈ 29.4 µM) | 64 µg/mL (≈ 118 µM) | 128 µg/mL (≈ 235 µM) | Ratio [16]: 2; Ratio [19]: 4
OC(Cn1cncn1)(Cn1c2ccccc2c2ccc(Br)cc21)c1ccc(F)cc1F (stereo unspecified) | 16 µg/mL (≈ 33.1 µM) | 64 µg/mL (≈ 132 µM) | 4 µg/mL (≈ 8.28 µM) | 16 µg/mL (≈ 33.1 µM) | 16 µg/mL (≈ 33.1 µM) | 64 µg/mL (≈ 132 µM) | 64 µg/mL (≈ 132 µM) | 16 µg/mL (≈ 33.1 µM) | 32 µg/mL (≈ 66.2 µM) | 64 µg/mL (≈ 132 µM) | 128 µg/mL (≈ 265 µM) | 16 µg/mL (≈ 33.1 µM) | 1 | 16 µg/mL (≈ 33.1 µM) | 4 µg/mL (≈ 8.28 µM) | 32 µg/mL (≈ 66.2 µM) | 128 µg/mL (≈ 265 µM) | 64 µg/mL (≈ 132 µM) | 32 µg/mL (≈ 66.2 µM) | 64 µg/mL (≈ 132 µM) | MIC [23]: 4 µg/mL; MIC [24]: 4 µg/mL; fractional inhibitory concentration index (FICI) [25]: 1.25; Ratio [16]: 2; fractional inhibitory concentration index (FICI) [26]: 0.32; MIC [27]: 16 µg/mL; Ratio [19]: 1; fractional inhibitory concentration index (FICI) [28]: 1.5
OC(Cn1cncn1)(Cn1c2ccccc2c2cc(Br)ccc21)c1ccc(F)cc1F (stereo unspecified) | 8 µg/mL (≈ 16.6 µM) | 32 µg/mL (≈ 66.2 µM) | 4 µg/mL (≈ 8.28 µM) | 16 µg/mL (≈ 33.1 µM) | 8 µg/mL (≈ 16.6 µM) | 64 µg/mL (≈ 132 µM) | 64 µg/mL (≈ 132 µM) | 16 µg/mL (≈ 33.1 µM) | 8 µg/mL (≈ 16.6 µM) | 32 µg/mL (≈ 66.2 µM) | 128 µg/mL (≈ 265 µM) | 32 µg/mL (≈ 66.2 µM) | 8 | 16 µg/mL (≈ 33.1 µM) | 32 µg/mL (≈ 66.2 µM) | 16 µg/mL (≈ 33.1 µM) | 128 µg/mL (≈ 265 µM) | 32 µg/mL (≈ 66.2 µM) | 32 µg/mL (≈ 66.2 µM) | 64 µg/mL (≈ 132 µM) | MIC [23]: 4 µg/mL; MIC [24]: 2 µg/mL; fractional inhibitory concentration index (FICI) [25]: 0.75; Ratio [16]: 1; fractional inhibitory concentration index (FICI) [26]: 0.32; MIC [27]: 16 µg/mL; Ratio [19]: 2; fractional inhibitory concentration index (FICI) [28]: 1.5
CCn1cc(C(=O)O)c(=O)c2cc(F)c(N3CCNCC3)cc21 [NORFLOXACIN] |  | 16 µg/mL (≈ 50.1 µM) |  | 8 µg/mL (≈ 25.1 µM) |  |  | 8 µg/mL (≈ 25.1 µM) |  |  | 2 µg/mL (≈ 6.26 µM) | 0.5 µg/mL (≈ 1.57 µM) |  |  | 1 µg/mL (≈ 3.13 µM) |  | 8 µg/mL (≈ 25.1 µM) | 4 µg/mL (≈ 12.5 µM) | 8 µg/mL (≈ 25.1 µM) | 4 µg/mL (≈ 12.5 µM) | 2 µg/mL (≈ 6.26 µM) | 
OC(Cn1cncn1)(Cn1c2ccc(Br)cc2c2cc(Br)ccc21)c1ccc(Cl)c(Cl)c1 (stereo unspecified) | 4 µg/mL (≈ 6.72 µM) | 64 µg/mL (≈ 108 µM) | 8 µg/mL (≈ 13.4 µM) | 8 µg/mL (≈ 13.4 µM) | 16 µg/mL (≈ 26.9 µM) | 32 µg/mL (≈ 53.8 µM) | 128 µg/mL (≈ 215 µM) | 16 µg/mL (≈ 26.9 µM) | 32 µg/mL (≈ 53.8 µM) | 64 µg/mL (≈ 108 µM) | 32 µg/mL (≈ 53.8 µM) | 32 µg/mL (≈ 53.8 µM) | 1 | 16 µg/mL (≈ 26.9 µM) | 8 µg/mL (≈ 13.4 µM) | 32 µg/mL (≈ 53.8 µM) | 128 µg/mL (≈ 215 µM) | 32 µg/mL (≈ 53.8 µM) | 16 µg/mL (≈ 26.9 µM) | 64 µg/mL (≈ 108 µM) | Ratio [16]: 2; Ratio [19]: 4
CC(C)(C)c1ccc2c(c1)c1cc(C(C)(C)C)ccc1n2CC(O)(Cn1cncn1)c1ccc(F)cc1F (stereo unspecified) | 64 µg/mL (≈ 124 µM) | 128 µg/mL (≈ 248 µM) | 64 µg/mL (≈ 124 µM) | 64 µg/mL (≈ 124 µM) | 64 µg/mL (≈ 124 µM) | 256 µg/mL (≈ 496 µM) | 256 µg/mL (≈ 496 µM) |  |  | 256 µg/mL (≈ 496 µM) | 64 µg/mL (≈ 124 µM) | 128 µg/mL (≈ 248 µM) |  | 32 µg/mL (≈ 61.9 µM) |  | 256 µg/mL (≈ 496 µM) | 32 µg/mL (≈ 61.9 µM) | 128 µg/mL (≈ 248 µM) | 128 µg/mL (≈ 248 µM) | 128 µg/mL (≈ 248 µM) | 
Cc1ccc(C(O)(Cn2cncn2)Cn2c3ccc(Br)cc3c3cc(Br)ccc32)cc1 (stereo unspecified) | 64 µg/mL (≈ 118 µM) | 256 µg/mL (≈ 474 µM) | 32 µg/mL (≈ 59.2 µM) | 128 µg/mL (≈ 237 µM) | 32 µg/mL (≈ 59.2 µM) | 64 µg/mL (≈ 118 µM) | 256 µg/mL (≈ 474 µM) |  |  | 256 µg/mL (≈ 474 µM) | 64 µg/mL (≈ 118 µM) | 128 µg/mL (≈ 237 µM) |  | 128 µg/mL (≈ 237 µM) |  | 256 µg/mL (≈ 474 µM) | 256 µg/mL (≈ 474 µM) | 16 µg/mL (≈ 29.6 µM) | 64 µg/mL (≈ 118 µM) | 256 µg/mL (≈ 474 µM) | 
OC(Cn1cncn1)(Cn1c2ccc(Br)cc2c2cc(Br)ccc21)c1ccc(Cl)cc1 (stereo unspecified) | 8 µg/mL (≈ 14.3 µM) | 128 µg/mL (≈ 228 µM) | 32 µg/mL (≈ 57.1 µM) | 16 µg/mL (≈ 28.5 µM) | 32 µg/mL (≈ 57.1 µM) | 64 µg/mL (≈ 114 µM) | 256 µg/mL (≈ 457 µM) |  |  | 32 µg/mL (≈ 57.1 µM) | 16 µg/mL (≈ 28.5 µM) | 64 µg/mL (≈ 114 µM) |  | 32 µg/mL (≈ 57.1 µM) |  | 16 µg/mL (≈ 28.5 µM) | 256 µg/mL (≈ 457 µM) | 16 µg/mL (≈ 28.5 µM) | 16 µg/mL (≈ 28.5 µM) | 256 µg/mL (≈ 457 µM) | 
OC(Cn1cncn1)(Cn1c2ccccc2c2cc(I)ccc21)c1ccc(F)cc1F (stereo unspecified) | 16 µg/mL (≈ 30.2 µM) | 256 µg/mL (≈ 483 µM) | 16 µg/mL (≈ 30.2 µM) | 32 µg/mL (≈ 60.3 µM) | 32 µg/mL (≈ 60.3 µM) | 64 µg/mL (≈ 121 µM) | 128 µg/mL (≈ 241 µM) |  |  | 128 µg/mL (≈ 241 µM) | 256 µg/mL (≈ 483 µM) | 64 µg/mL (≈ 121 µM) |  | 16 µg/mL (≈ 30.2 µM) |  | 16 µg/mL (≈ 30.2 µM) | 256 µg/mL (≈ 483 µM) | 32 µg/mL (≈ 60.3 µM) | 16 µg/mL (≈ 30.2 µM) | 128 µg/mL (≈ 241 µM) | 
OC(Cn1cncn1)(Cn1ccc2ccccc21)c1ccc(F)cc1F (stereo unspecified) | 32 µg/mL (≈ 90.3 µM) | 64 µg/mL (≈ 181 µM) | 64 µg/mL (≈ 181 µM) | 32 µg/mL (≈ 90.3 µM) | 64 µg/mL (≈ 181 µM) | 32 µg/mL (≈ 90.3 µM) | 128 µg/mL (≈ 361 µM) |  |  | 128 µg/mL (≈ 361 µM) | 128 µg/mL (≈ 361 µM) | 128 µg/mL (≈ 361 µM) |  | 32 µg/mL (≈ 90.3 µM) |  | 64 µg/mL (≈ 181 µM) | 128 µg/mL (≈ 361 µM) | 32 µg/mL (≈ 90.3 µM) | 64 µg/mL (≈ 181 µM) | 64 µg/mL (≈ 181 µM) | 
